The target of assay [1] is GDP-bound KRAS protein (aa 1-169), containing both G12C and C118A amino acid substitutions (Homo sapiens, UniProt P01116, C118A/G12C). Description: Coupled Nucleotide Exchange Assay. The note with it: 5 min compound pre-incubation; SOS-mediated nucleotide exchange, AlphaScreen. The assay is classed as biochemical. How it is done:
Following compound pre-incubation, purified SOS protein (aa 564-1049) and GTP (Roche 10106399001) were added to the assay wells and incubated for an additional 30 min. To determine the extent of inhibition of SOS-mediated nucleotide exchange, purified GST-tagged cRAF (aa 1-149), nickel chelate AlphaLISA acceptor beads (PerkinElmer AL108R), and AlphaScreen glutathione donor beads (PerkinElmer 6765302) were added to the assay wells and incubated for 10 minutes. The assay plates were then read on a PerkinElmer EnVision Multilabel Reader, using AlphaScreen® technology, and data were analyzed using a 4-parameter logistic model to calculate IC50 values.
In general terms: Bead proximity is the source of the signal in Alpha formats.

Assay [2] deals with Phosphorylation of ERK1/2 in MIA PaCa-2 cells. Description: Phospho-ERK1/2 MSD Assay. The note with it: EGF stimulation 10 ng/mL, 10 min, read-out: p-ERK IC50 (2 h). The class given is cell-based. The method, then:
Phospho-ERK1/2 MSD Assay: MIA PaCa-2 (ATCC® CRL-1420™) and A549 (ATCC® CCL-185™) cells were cultured in RPMI 1640 Medium (ThermoFisher Scientific 11875093) containing 10% fetal bovine serum (ThermoFisher Scientific 16000044) and 1× penicillin-streptomycin-glutamine (ThermoFisher Scientific 10378016). Sixteen hours prior to compound treatment, MIA PaCa-2 were seeded in 96-well cell culture plates at a density of 25,000 cells/well and incubated at 37° C., 5% CO2. A compound dose-response titration was diluted in growth media, added to appropriate wells of a cell culture plate, and then incubated at 37° C., 5% CO2 for 2 (see Table 10). Following compound treatment, cells were stimulated with 10 ng/mL EGF (Roche 11376454001) for 10 min, washed with ice-cold Dulbecco's phosphate-buffered saline, no Ca^2+ or Mg^2+ (ThermoFisher Scientific 14190144), and then lysed in RIPA buffer (50 mM Tris-HCl pH 7.5, 1% Igepal, 0.5% sodium deoxycholate, 150 mM NaCl, and 0.5% sodium dodecyl sulfate) containing protease inhibitors (Roche 4693132001) and phosphatase inhibitors (Roche 4906837001). Phosphorylation of ERK1/2 in compound-treated lysates was assayed using Phospho-ERK1/2 Whole Cell Lysate kits (Meso Scale Discovery K151DWD) according to the manufacturer's protocol. Assay plates were read on a Meso Scale Discovery Sector Imager 6000, and data were analyzed using a 4-parameter logistic model to calculate IC50 values.

Setting [3] is: Homo sapiens, MIA PaCa-2, 2 h compound treatment.

Usually IC50 stands for the concentration needed to halve the response being measured.

Where a name gives a salt, the structure may show the parent alone. Read-outs that look alike come from different tables or passages of the source.

Sequence of GDP-bound KRAS protein (aa 1-169), containing both G12C and C118A amino acid substitutions (P01116 1-169 isoform P01116-2 G12C/C118A): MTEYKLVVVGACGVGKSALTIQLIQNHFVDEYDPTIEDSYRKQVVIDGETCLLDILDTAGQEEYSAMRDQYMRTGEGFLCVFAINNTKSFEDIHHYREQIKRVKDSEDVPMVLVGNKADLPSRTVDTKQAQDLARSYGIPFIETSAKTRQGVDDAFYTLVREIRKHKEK

Regarding `C=CC(=O)N1CCN(c2c(C#N)c(=O)n(-c3c(C(C)C)ccnc3C(C)C)c3nc(-c4ccccc4F)c(Cl)cc23)CC1` (racemic) [Example 8, 4-(4-Acryloylpiperazin-1-yl)-6-chloro-1-(2,4-diisopropylpyridin-3-yl)-7-(2-fluorophenyl)-2-oxo-1,2-dihydro-1,8-naphthyridine-3-carbonitrile], in assay [1], the “Coupled exchange IC50 (5 min; μM)” value was determined as 0.06 µM. Further, the IC50 in assay [2] (setting [3]) was 120 nM.
Turning to `C=CC(=O)N1CCN(c2c(C#N)c(=O)n(-c3c(C)ccnc3C(C)C)c3nc(-c4ccccc4F)c(Cl)cc23)C[C@H]1C` (single isomer, unassigned) [Example 6.7], the “Coupled exchange IC50 (5 min; μM)” value in assay [1] was found to be 0.20 µM. In assay [2] (setting [3]), the IC50 came to 150 nM.
Taken in the same sequence, the figures for `C=CC(=O)N1CCN(c2c(C#N)c(=O)n(-c3c(C(C)C)ccnc3C(C)C)c3nc(-c4ccccc4C)c(Cl)cc23)CC1` (single isomer, unassigned) [Example 7, 4-(4-Acryloylpiperazin-1-yl)-6-chloro-1-(2,4-diisopropylpyridin-3-yl)-2-oxo-7-(o-tolyl)-1,2-dihydro-1,8-naphthyridine-3-carbonitrile] were 0.15 µM and 220 nM.
Turning to `C=CC(=O)N1CCN(c2c(C#N)c(=O)n(-c3c(C(C)C)ccnc3C(C)C)c3nc(-c4ccccc4C)c(Cl)cc23)CC1` (single isomer, unassigned) [Example 7.1, 4-(4-acryloylpiperazin-1-yl)-6-chloro-1-(2,4-diisopropylpyridin-3-yl)-2-oxo-7-(o-tolyl)-1,2-dihydro-1,8-naphthyridine-3-carbonitrile], the IC50 in assay [2] (2 h compound treatment) was determined as 140 nM.
In the case of `C=CC(=O)N1[C@H](C)CN(c2c(C#N)c(=O)n(-c3c(C)ccnc3C(C)C)c3nc(-c4ccccc4F)c(Cl)cc23)C[C@@H]1C` (single isomer, unassigned) [Example 7.7], the “Coupled exchange IC50 (5 min; μM)” value in assay [1] was 0.18 µM. In assay [2] (setting [3]), the IC50 stood at 260 nM.
Regarding `C=CC(=O)N1CCN(c2c(C#N)c(=O)n(-c3c(C(C)C)ccnc3C(C)C)c3nc(-c4ccccc4F)c(Cl)cc23)CC1` (single isomer, unassigned) [Example 8.1, 4-(4-acryloylpiperazin-1-yl)-6-chloro-1-(2,4-diisopropylpyridin-3-yl)-7-(2-fluorophenyl)-2-oxo-1,2-dihydro-1,8-naphthyridine-3-carbonitrile], in assay [1], the “Coupled exchange IC50 (5 min; μM)” value worked out at 0.07 µM. Also, in assay [2] (setting [3]), the IC50 came to 320 nM.
Regarding `C=CC(=O)N1CCN(c2c(C#N)c(=O)n(-c3c(C(C)C)ccnc3C(C)C)c3nc(-c4ccccc4F)c(Cl)cc23)CC1` (single isomer, unassigned) [Example 8.2, 4-(4-acryloylpiperazin-1-yl)-6-chloro-1-(2,4-diisopropylpyridin-3-yl)-7-(2-fluorophenyl)-2-oxo-1,2-dihydro-1,8-naphthyridine-3-carbonitrile], in assay [1], the “Coupled exchange IC50 (5 min; μM)” value is 0.12 µM. For the same compound, the IC50 in assay [2] (2 h compound treatment) is 160 nM.
Take `C=CC(=O)N1CCN(c2c(C#N)c(=O)n(-c3c(C(C)C)ccnc3N(C)C)c3nc(-c4ccccc4F)c(Cl)cc23)CC1` (single isomer, unassigned) [Example 8.4, 4-(4-acryloylpiperazin-1-yl)-6-chloro-1-(2-(dimethylamino)-4-isopropylpyridin-3-yl)-7-(2-fluorophenyl)-2-oxo-1,2-dihydro-1,8-naphthyridine-3-carbonitrile]: in assay [1], the “Coupled exchange IC50 (5 min; μM)” value turned out to be 0.24 µM. Also, the half-maximal inhibitory concentration (IC50) in assay [2] (2 h compound treatment) was 240 nM.
`C=CC(=O)N1CCN(c2c(C#N)c(=O)n(-c3c(N(C)C)ccnc3C(C)C)c3nc(-c4ccccc4F)c(Cl)cc23)CC1` (single isomer, unassigned) [Example 8.6, 4-(4-acryloylpiperazin-1-yl)-6-chloro-1-(4-(dimethylamino)-2-isopropylpyridin-3-yl)-7-(2-fluorophenyl)-2-oxo-1,2-dihydro-1,8-naphthyridine-3-carbonitrile]: in assay [1], the “Coupled exchange IC50 (5 min; μM)” value was 0.25 µM. Besides, in assay [2] (setting [3]), the IC50 was 160 nM.
Consider `C=CC(=O)N1CCN(c2c(C#N)c(=O)n(-c3c(C(C)C)ccnc3N(C)C)c3nc(-c4ccccc4F)c(Cl)cc23)CC1` (single isomer, unassigned) [Example 8.8, 4-(4-acryloylpiperazin-1-yl)-6-chloro-1-(2-(dimethylamino)-4-isopropylpyridin-3-yl)-7-(2-fluorophenyl)-2-oxo-1,2-dihydro-1,8-naphthyridine-3-carbonitrile], for which the “Coupled exchange IC50 (5 min; μM)” value in assay [1] amounted to 0.09 µM. Besides, in assay [2] (2 h compound treatment), the IC50 amounted to 50 nM.
For `C=CC(=O)N1CCN(c2c(C#N)c(=O)n(-c3c(C)ccnc3C(C)C)c3nc(-c4ccccc4C)c(Cl)cc23)CC1` (single isomer, unassigned) [Example 11.1, 4-(4-acryloylpiperazin-1-yl)-6-chloro-1-(2-isopropyl-4-methylpyridin-3-yl)-2-oxo-7-(o-tolyl)-1,2-dihydro-1,8-naphthyridine-3-carbonitrile], the “Coupled exchange IC50 (5 min; μM)” value in assay [1] was determined as 0.15 µM. The IC50 in assay [2] (setting [3]) turned out to be 120 nM.
For the compound `C=CC(=O)N1CCN(c2c(C#N)c(=O)n(-c3c(C)ccnc3C(C)C)c3nc(-c4ccccc4C(C)C)c(Cl)cc23)CC1` (single isomer, unassigned) [Example 11.3, 4-(4-acryloylpiperazin-1-yl)-6-chloro-1-(2-isopropyl-4-methylpyridin-3-yl)-7-(2-isopropylphenyl)-2-oxo-1,2-dihydro-1,8-naphthyridine-3-carbonitrile], the “Coupled exchange IC50 (5 min; μM)” value in assay [1] came out at 0.05 µM. For the same compound, the IC50 in assay [2] (setting [3]) worked out at 90 nM.
Regarding `CC(C)c1ncnc(C(C)C)c1-n1c(=O)c(C#N)c(N2CCN(C(=O)/C=C/CN(C)C)CC2)c2cc(Cl)c(-c3ccccc3F)nc21` [Example 3, (E)-6-Chloro-1-(4,6-diisopropylpyrimidin-5-yl)-4-(4-(4-(dimethylamino)but-2-enoyl)piperazin-1-yl)-7-(2-fluorophenyl)-2-oxo-1,2-dihydro-1,8-naphthyridine-3-carbonitrile], the “Coupled exchange IC50 (5 min; μM)” value in assay [1] was found to be 0.4 µM. Further, the IC50 in assay [2] (setting [3]) worked out at 720 nM.
Taken in the same sequence, the figures for `CC(C)c1ncnc(C(C)C)c1-n1c(=O)c(C#N)c(N2CCN(C(=O)/C=C/CN3CCCCC3)CC2)c2cc(Cl)c(-c3ccccc3F)nc21` [Example 3.1] were 1.02 µM and 4470 nM.
Taken in the same sequence, the figures for `CC(C)c1ncnc(C(C)C)c1-n1c(=O)c(C#N)c(N2CCN(C(=O)/C=C/C3CCCN3C)CC2)c2cc(Cl)c(-c3ccccc3F)nc21` (stereo not drawn) [Example 3.2] were 0.71 µM and 1260 nM.
Taken in the same sequence, the figures for `CNC/C=C/C(=O)N1CCN(c2c(C#N)c(=O)n(-c3c(C(C)C)ncnc3C(C)C)c3nc(-c4ccccc4F)c(Cl)cc23)CC1` [Example 4, (E)-6-Chloro-1-(4,6-diisopropylpyrimidin-5-yl)-7-(2-fluorophenyl)-4-(4-(4-(methylamino)but-2-enoyl)piperazin-1-yl)-2-oxo-1,2-dihydro-1,8-naphthyridine-3-carbonitrile trifluoroacetate salt] were 0.34 µM and 300 nM.
For `CC(C)c1ncnc(C(C)C)c1-n1c(=O)c(C#N)c(N2CCN(C(=O)/C=C/CN)CC2)c2cc(Cl)c(-c3ccccc3F)nc21` [Example 4.1, (E)-4-(4-(4-aminobut-2-enoyl)piperazin-1-yl)-6-chloro-1-(4,6-diisopropylpyrimidin-5-yl)-7-(2-fluorophenyl)-2-oxo-1,2-dihydro-1,8-naphthyridine-3-carbonitrile], the “Coupled exchange IC50 (5 min; μM)” value in assay [1] worked out at 0.18 µM. In assay [2] (setting [3]), the IC50 is 160 nM.
